Measured values published in patent US9999222B2, “Herbicidal combination comprising azines” (BASF SE, priority 2014, dated 2018).
Several values for one entry are separate records, joined by “and”; a condition that tells them apart may be missing. Equal entries are not always repeated. Where two headings read alike, the source gives them in different places.

Tests used:
Assay in all cases: Greenhouse test, pre-emergence treatment
BRADC = assay type: in vivo, Brachiaria decumbens; details: pre-emergence, pre-emergence
Description: (§1) The culture containers used were plastic flowerpots containing loamy sand with approximately 3.0% of humus as the substrate. The seeds of the test plants were sown separately for each species.
(§2) For the pre-emergence treatment, the active ingredients, which had been suspended or emulsified in water, were applied directly after sowing by means of finely distributing nozzles. The containers were irrigated gently to promote germination and growth and subsequently covered with transparent plastic hoods until the plants had rooted. This cover caused uniform germination of the test plants, unless this had been impaired by the active ingredients.
(§3) Depending on the species, the plants were kept at 10-25° C. or 20-35° C., respectively.
(§4) The test period extended over 2 to 4 weeks. During this time, the plants were tended, and their response to the individual treatments was evaluated.
(§5) Evaluation was carried out using a scale from 0 to 100. 100 means no emergence of the plants, or complete destruction of at least the aerial moieties, and 0 means no damage, or normal course of growth. A moderate herbicidal activity is given at values of at least 60, a good herbicidal activity is given at values of at least 70, and a very good herbicidal activity is given at values of at least 85.
(§6) The respective stated components a and b, and if appropriate, c were formulated as a 10% by weight strength emulsion concentrate and, with addition of the amount of solvent system, introduced into the spray liquor used for applying the active compound.
(§7) In the examples, the solvent used was water.
(§8) In the examples below, using the method of S. R. Colby (1967) “Calculating synergistic and antagonistic responses of herbicide combinations”, Weeds 15, p. 22ff., the value E, which is expected if the activity of the individual active compounds is only additive, was calculated. E=X+Y−(X·Y/100) where • X=percent activity using active compound a at an application rate A; • Y=percent activity using active compound b at an application rate B; • E=expected activity (in %) by a+b at application rates A+B.
(§9) If the value found experimentally is higher than the value E calculated according to Colby, a synergistic effect is present.

COMBE = assay type: in vivo, Commelina benghalensis; details: pre-emergence
In short: (§10)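 Damage was rated on a 0-100 scale, with 100 meaning no emergence or full destruction of aerial parts. Observed combination effects were set against the additive Colby expectation E=X+Y−(X·Y/100). Spray liquor was water-based, from 10% emulsion concentrates, applied pre-emergence right after sowing in loamy sand (about 3.0% humus). Plants were held at 10-25 °C or 20-35 °C for 2 to 4 weeks.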

EPHHL = assay type: in vivo, Euphorbia heterophylla; details: pre-emergence
In short: as §10

IPOHE = assay type: in vivo, Ipomoea hederacea
In short: as §10

LOLMU = assay type: in vivo, Lolium multiflorum; details: pre-emergence, pre-emergence
In short: as §10

GALAP = assay type: in vivo, Galium aparine; details: pre-emergence
In short: as §10

POLCO = assay type: in vivo, Polygonum convolvulus; details: pre-emergence
In short: as §10

ALOMY = assay type: in vivo, Alopecurus myosuroides; details: pre-emergence, pre-emergence
In short: as §10

AVEFA = assay type: in vivo, Avena fatua; details: Avena fatua, pre-emergence, 480 h, pre-emergence, read-out: observed % activity 20 DAT
Description: as §1, §2, §3, §4, §5, §6, §7, §8, §9

GERPU = assay type: in vivo, Geranium pusillum; details: pre-emergence
In short: as §10

ECHCG = assay type: in vivo, Echinocloa crus-galli
In short: as §10

KCHSC = assay type: in vivo, Kochia scoparia; details: pre-emergence
In short: as §10

PHACA = assay type: in vivo, Phalaris canariensis; details: Phalaris canariensis, pre-emergence, 480 h, pre-emergence, read-out: observed % activity 20 DAT
Description: as §1, §2, §3, §4, §5, §6, §7, §8, §9

[1] = Commelina benghalensis, 480 h, 4 g ai/ha, read-out: observed % activity 20 DAT
[2] = Euphorbia heterophylla, 480 h, 8 g ai/ha, read-out: observed % activity 20 DAT
[3] = Ipomoea hederacea, 480 h, 4 g ai/ha, read-out: observed % activity 20 DAT
[4] = Lolium multiflorum, 480 h, 2 g ai/ha, read-out: observed % activity 20 DAT
[5] = Lolium multiflorum, 480 h, 8 g ai/ha, read-out: observed % activity 20 DAT
[6] = Galium aparine, 480 h, 4 g ai/ha, read-out: observed % activity 20 DAT
[7] = Galium aparine, 480 h, 8 g ai/ha, read-out: observed % activity 20 DAT
[8] = Fallopia convolvulus, 480 h, 4 g ai/ha, read-out: observed % activity 20 DAT
[9] = Alopecurus myosuroides, 480 h, 2 g ai/ha, read-out: observed % activity 20 DAT
[10] = Echinochloa crus-galli, 480 h, 4 g ai/ha, read-out: observed % activity 20 DAT
[11] = Bassia scoparia, 480 h, 4 g ai/ha, read-out: observed % activity 20 DAT
[12] = Bassia scoparia, 480 h, 8 g ai/ha, read-out: observed % activity 20 DAT

Compound Nc1nc(Nc2c(F)c(F)cc(F)c2F)nc(C2(F)CCCC2)n1 [compound 9, 6-(1-fluorocyclopentyl)-N4-(2,3,5,6-tetrafluorophenyl)-1,3,5-triazine-2,4-diamine] has an inhibition at 2 g/ha (BRADC; Urochloa decumbens, 480 h, 2 g ai/ha, read-out: observed % activity 20 DAT) of 20%, an inhibition at 4 g/ha (BRADC; Urochloa decumbens, 480 h, 4 g ai/ha, read-out: observed % activity 20 DAT) of 55% and an inhibition at 8 g/ha (BRADC; Urochloa decumbens, 480 h, 8 g ai/ha, read-out: observed % activity 20 DAT) of 35%. The “observed % activity 20 DAT” value (BRADC; 4 g ai/ha) was 40%, the “observed % activity 20 DAT” value (COMBE; COMBE, individual, use rate 16 g ai/ha) was 35% and 15% and the pest or weed control at 4 g/ha (COMBE; [1]) was 25%. It also gave a pest or weed control at 8 g/ha (COMBE; Commelina benghalensis, 480 h, 8 g ai/ha, read-out: observed % activity 20 DAT) of 65%, an inhibition at 8 g/ha (COMBE; Commelina benghalensis, 480 h, COMBE, individual, use rate 8 g ai/ha, read-out: observed % activity 20 DAT) of 20% and an inhibition at 4 g/ha (COMBE; [1]) of 25%. For the same compound, the inhibition at 16 g/ha (COMBE; Commelina benghalensis, 480 h, 16 g ai/ha, read-out: observed % activity 20 DAT) was 20%, the “observed % activity 20 DAT” value (COMBE; 16 g ai/ha) was 35% and the “observed % activity 20 DAT” value (EPHHL; EPHHL, individual, use rate 8 g ai/ha) was 30%. It also gave an inhibition at 8 g/ha (EPHHL; Euphorbia heterophylla, 480 h, EPHHL, individual, use rate 8 g ai/ha, read-out: observed % activity 20 DAT) of 25%, an inhibition at 16 g/ha (EPHHL; Euphorbia heterophylla, 480 h, EPHHL, individual, use rate 16 g ai/ha, read-out: observed % activity 20 DAT) of 15% and a pest or weed control at 4 g/ha (EPHHL; Euphorbia heterophylla, 480 h, 4 g ai/ha, read-out: observed % activity 20 DAT) of 25%. It also gave an inhibition at 8 g/ha (EPHHL; [2]) of 10%, a pest or weed control at 8 g/ha (EPHHL; [2]) of 10% and an inhibition at 16 g/ha (EPHHL; Euphorbia heterophylla, 480 h, 16 g ai/ha, read-out: observed % activity 20 DAT) of 20%. For the same compound, the “observed % activity 20 DAT” value (IPOHE; 16 g ai/ha) was 15%, the “observed % activity 20 DAT” value (IPOHE; IPOHE, individual, use rate 16 g ai/ha) was 15% and the inhibition at 4 g/ha (IPOHE; [3]) was 0%. It also gave a pest or weed control at 4 g/ha (IPOHE; [3]) of 0%, an inhibition at 16 g/ha (IPOHE; Ipomoea hederacea, 480 h, 16 g ai/ha, read-out: observed % activity 20 DAT) of 10% and an inhibition at 16 g/ha (IPOHE; Ipomoea hederacea, 480 h, IPOHE, individual, use rate 16 g ai/ha, read-out: observed % activity 20 DAT) of 10%. For the same compound, the inhibition at 2 g/ha (LOLMU; [4]) was 0%, the pest or weed control at 2 g/ha (LOLMU; [4]) was 0% and the inhibition at 8 g/ha (LOLMU; [5]) was 75%. For the same compound, the pest or weed control at 8 g/ha (LOLMU; [5]) was 75%, the “observed % activity 20 DAT” value (LOLMU; 8 g ai/ha) was 80% and the “observed % activity 20 DAT” value (GALAP; GALAP, individual, use rate 8 g ai/ha) was 50%. The pest or weed control at 4 g/ha (GALAP; [6]) was 55%, the pest or weed control at 8 g/ha (GALAP; [7]) was 90% and the inhibition at 8 g/ha (GALAP; Galium aparine, 480 h, GALAP, individual, use rate 8 g ai/ha, read-out: observed % activity 20 DAT) was 70%. It also gave an inhibition at 16 g/ha (GALAP; Galium aparine, 480 h, GALAP, individual, use rate 16 g ai/ha, read-out: observed % activity 20 DAT) of 60%, an inhibition at 4 g/ha (GALAP; [6]) of 55% and an inhibition at 8 g/ha (GALAP; [7]) of 70%. It also gave an inhibition at 16 g/ha (GALAP; Galium aparine, 480 h, 16 g ai/ha, read-out: observed % activity 20 DAT) of 60%, a pest or weed control at 4 g/ha (POLCO; [8]) of 20% and a pest or weed control at 8 g/ha (POLCO; Fallopia convolvulus, 480 h, 8 g ai/ha, read-out: observed % activity 20 DAT) of 80%. For the same compound, the inhibition at 8 g/ha (POLCO; Fallopia convolvulus, 480 h, POLCO, individual, use rate 8 g ai/ha, read-out: observed % activity 20 DAT) was 50%, the inhibition at 16 g/ha (POLCO; Fallopia convolvulus, 480 h, POLCO, individual, use rate 16 g ai/ha, read-out: observed % activity 20 DAT) was 70% and the inhibition at 4 g/ha (POLCO; [8]) was 20%. The inhibition at 16 g/ha (POLCO; Fallopia convolvulus, 480 h, 16 g ai/ha, read-out: observed % activity 20 DAT) was 80%, the “observed % activity 20 DAT” value (POLCO; 8 g ai/ha) was 75% and the inhibition at 2 g/ha (ALOMY; [9]) was 75%. The pest or weed control at 2 g/ha (ALOMY; [9]) was 75%, the pest or weed control at 8 g/ha (ALOMY; Alopecurus myosuroides, 480 h, 8 g ai/ha, read-out: observed % activity 20 DAT) was 98% and the “observed % activity 20 DAT” value (ALOMY; 2 g ai/ha) was 70%. For the same compound, the “observed % activity 20 DAT” value (ALOMY; 4 g ai/ha) was 45%, the inhibition at 2 g/ha (AVEFA; 2 g ai/ha) was 0% and the inhibition at 8 g/ha (AVEFA; 8 g ai/ha) was 0%. For the same compound, the “observed % activity 20 DAT” value (GERPU; GERPU, individual, use rate 16 g ai/ha) was 30% and 60%, the inhibition at 8 g/ha (GERPU; Geranium pusillum, 480 h, GERPU, individual, use rate 8 g ai/ha, read-out: observed % activity 20 DAT) was 40% and the pest or weed control at 4 g/ha (GERPU; Geranium pusillum, 480 h, 4 g ai/ha, read-out: observed % activity 20 DAT) was 20%. For the same compound, the inhibition at 8 g/ha (GERPU; Geranium pusillum, 480 h, 8 g ai/ha, read-out: observed % activity 20 DAT) was 40%, the “observed % activity 20 DAT” value (GERPU; 16 g ai/ha) was 60% and 30% and the “observed % activity 20 DAT” value (ECHCG; 2 g ai/ha) was 70%. The inhibition at 2 g/ha (ECHCG; Echinochloa crus-galli, 480 h, 2 g ai/ha, read-out: observed % activity 20 DAT) was 75%, the inhibition at 4 g/ha (ECHCG; [10]) was 90% and the pest or weed control at 4 g/ha (ECHCG; [10]) was 85%. It also gave a pest or weed control at 4 g/ha (KCHSC; [11]) of 50%, a pest or weed control at 8 g/ha (KCHSC; [12]) of 85% and an inhibition at 7 g/ha (KCHSC; Bassia scoparia, 480 h, KCHSC, individual, use rate 7 g ai/ha, read-out: observed % activity 20 DAT) of 75%. The inhibition at 8 g/ha (KCHSC; Bassia scoparia, 480 h, KCHSC, individual, use rate 8 g ai/ha, read-out: observed % activity 20 DAT) was 90%, the inhibition at 16 g/ha (KCHSC; Bassia scoparia, 480 h, KCHSC, individual, use rate 16 g ai/ha, read-out: observed % activity 20 DAT) was 90% and the inhibition at 4 g/ha (KCHSC; [11]) was 70%. The inhibition at 8 g/ha (KCHSC; [12]) was 75%, the inhibition at 16 g/ha (KCHSC; Bassia scoparia, 480 h, 16 g ai/ha, read-out: observed % activity 20 DAT) was 90% and the “observed % activity 20 DAT” value (KCHSC; KCHSC, individual, use rate 16 g ai/ha) was 80%. For the same compound, the “observed % activity 20 DAT” value (KCHSC; 16 g ai/ha) was 80%, the inhibition at 2 g/ha (PHACA; 2 g ai/ha) was 0% and the pest or weed control at 2 g/ha (PHACA; 2 g ai/ha) was 0%. It also gave an inhibition at 8 g/ha (PHACA; 8 g ai/ha) of 50% and a pest or weed control at 8 g/ha (PHACA; 8 g ai/ha) of 70%.
